Source: US6803233B2, “Model for Alzheimer's disease and other neurodegenerative diseases” (priority 2000, dated 2004)
Values joined by “and” are separate entries in the source; they are usually repeats but may differ in a detail not shown here. Equal entries are not always repeated. “Also recorded” adds a separate entry of the source.

Assays:
caspase 3 = experiment: ELISA assay of caspase 3 activity in cultured hippocampal slices; type: cell-based; settings: slices cultured 12 days, treated 6 days
Experimental: Hippocampal slices were cultured for 12 days and incubated with vehicle alone, ZPAD, or chloroquine (CQN; a lysosomal inhibitor) for 6 days (FIG. 28). Cultures were then homogenized, and subjected to an ELISA assay to detect the activity of caspase 3, an apoptotic protease.

p35 = experiment: Immunoblot of p35/p25 in cultured rat hippocampal slices; type: cell-based; settings: hippocampal slices
Experimental: Hippocampal slices were collected, homogenized, and subjected to SDS-PAGE electrophoresis. Immunoblots were then probed with anti-p35 sera that were raised against the C-terminal domain of p35.
(§1) Cultures of hippocampal slices were prepared from 10-12 days old rats.

TGF-beta = experiment: RT-PCR/northern blot of cytokine mRNA in cultured hippocampal slices; type: cell-based; settings: ZPAD 20 μM, mevastatin 20 μM
cathepsin D [1] = settings: literature report; cited from earlier work
IL-10 = experiment: RT-PCR/northern blot of cytokine mRNA in cultured hippocampal slices; type: cell-based; settings: ZPAD 20 μM, mevastatin 20 μM
tangle-like structures [2] = experiment: AT8 immunocytochemistry of cultured mouse hippocampal slices; type: cell-based; settings: ZPAD 6 days; for number of AT8 immunopositive profiles: 0.3 mm^2 box at CA1/subicular border, mean±s.e.m., n=5
Experimental: Hippocampal slices were prepared from 10 to 13 day old C57BL/6J (wild-type) and C57BL/6J-ApoE^tm1Unc (ApoE-knockout) mice obtained from the Jackson laboratory, Bar Harbor, Me. Pups were placed under light bromo-chloro-trifluoroethane anesthesia (Sigma, St. Louis, Mo.), and killed by decapitation. After removing the brains, the hippocampus was dissected and subsequently placed on a McIlwain tissue chopper where slices (400 μm thick) were obtained and placed in a solution of cutting medium consisting of Minimum Essential Medium (MEM) with Earle's salts (Gibco, Grand Island, N.Y.), 25 mM HEPES buffer, 10 mM Tris base, 10 mM glucose, and 3 mM MgCl2, pH 7.20. Hippocampal slices were then placed onto the membranes of Millicell-CM culture inserts (Millipore Corp., Bedford, Mass.) in 6 well culture cluster plates and 1 ml of media per well using the methods described by Stoppini et al., J. Neurosci. Methods 37(2):173-82 (1991). The culture medium was described previously by Bednarski et al., J. Neurosci. 17(11):4006-21 (1997). The cultures were incubated in a 37° C. atmosphere containing 5% CO2 and the culture medium was replaced every other day until the initiation of experiments. Each culture cluster plate contained hippocampal slices from either two wild-type or two apoE-knockout mice and individual wells were used for matched control and experimental treatment groups.
After maintaining the slices with normal culture medium (Bednarski et al., J. Neurosci. 17(11):4006-21 (1997)) in vitro for 12-14 days, slices were incubated with culture medium containing either 20 μM N-CBZ-L-phenylalanyl-L-alanine-diazomethyl-ketone (ZPAD; BACHEM Bioscience, Inc., Torrance, Calif.), an inhibitor of cathepsins B and L (Shaw & Dean, Biochem. J. 186:385-390 (1980); Green & Shaw, J Biol Chem. 256:1923-1928 (1981); Richardson et al., J. Cell Biol. 107: 2097-2107 (1988)) or vehicle (dimethylsulfoxide; DMSO, 0.01%-0.04%) for six days. This treatment media was exchanged every other day.
For immunocytochemical staining, control and ZPAD-treated slices from both wild-type and apoE-deficient mice were fixed in 4% paraformaldehyde in 0.1 M phosphate buffer (“PB”) at 4° C. overnight, rinsed once in a solution of phosphate buffered saline PBS (PB: phosphate buffer: 0.1M Na2HPO4 and NaH2PO4; PBS: phosphate buffered saline: NaCl 8 g, KCl 0.2 g, Na2HPO4 1.44 g, KH2PO4 0.24 g, dissolved in 1 liter distilled water, pH 7.4) cryoprotected in 20% sucrose in 0.1 M PB, sectioned on a freezing microtome at 25 μm parallel to the broad upper surface of the explant and mounted onto sterile Fisher Superfrost/Plus slides. […]

cathepsin D [3] = experiment: Immunoblot of cathepsin D isoforms in cultured mouse hippocampal slices; type: cell-based; settings: 20 μM ZPAD, 6 days
basophilic granules = experiment: Semithin section histology (toluidine blue) of cultured mouse hippocampal slices; type: cell-based; settings: 20 μM ZPAD, six days; wild-type and apoE-deficient slices
Experimental: To prepare semithin sections, control and treated slices from both wild-type and apoE-deficient mice were fixed in a solution of 0.1M phosphate buffer (“PB”; pH 7.2), containing 1.5% paraformaldehyde and 1.5% glutaraldehyde. After a period of two to three hours, the solution was removed and the slices were rinsed three times in phosphate buffered saline (“PBS”; 50 mM phosphate buffer, 0.9% NaCl, pH 7.3). At this time, slices were postfixed in 2% osmium tetroxide in PB for one hour, dehydrated in a series of alcohols and embedded in Polybed-812. Semithin (1 μm thick) sections were cut on a Sorvall Porter-Blum ultramicrotome and stained with a solution of 0.1% toluidine blue. Digitized images were imported using a Sony DKC-5000 camera attached to a Zeiss microscope and processed using Adobe Photoshop™.

tau protein = settings: literature report; cited from earlier work
tau = experiment: Immunoblot of tau (tau-1, AT8) in cultured rat hippocampal slices; type: cell-based; settings: rat hippocampal slices; 6 days
Experimental: Immunoblotting was carried out by using anti-non phosphorylated tau antibody, tau-1 or anti-phosphorylated tau antibody, AT8.
as §1

tangle-like structures [4] = experiment: AT8 immunostaining of cultured rat hippocampal slices; type: cell-based; settings: rat hippocampal slices; agent applied for 6 days
Experimental: Cultured slices were stained with anti-phosphorylated tau antibody AT8.
as §1
Cultured rat hippocampal slices of 12 days in vitro were treated with 20 μM pravastatin for 6 days and processed from immunohistological studies with the monoclonal antibody AT8. The subiculum, CA1 field, and CA3 field of the hippocampus were examined by photomicroscopy.

MAPK (ERK1/2) = experiment: Immunoblot with anti-active MAPK in cultured hippocampal slices; type: cell-based; settings: hippocampal slices; 6 days
[5] = apoE-knockout mouse slices, relative to yoked knockout controls
[6] = wild-type mouse slices, relative to controls, mean±s.e.m.

activity of caspase 3 (caspase 3): marked increase | increase in cathepsin D proenzyme (~55 kDa) (cathepsin D [3]; [5]): 145±43% and 145+43% | increase in cathepsin D proenzyme (~55 kDa) (cathepsin D [3]; wild-type mouse slices, relative to yoked controls, mean±s.e.m., n=9): 65±29% and 65+29%
Substance: N-CBZ-L-phenylalanyl-L-alanine-diazomethyl-ketone [ZPAD]
levels of p35 (p35; 6 days): significant decrease | truncated form p25 (p35; six day treatment): paralleled increase | mRNA levels of TGF-beta (TGF-beta): increases | enzymatically active cathepsin D (cathepsin D [1]): increases in enzymatically active cathepsin D | mRNA levels of IL-10 (IL-10): increases | AT8-immunoreactive tangle-like structures (tangle-like structures [2]; apoE-knockout mouse slices): present in large numbers; also recorded: significantly increased; also recorded: more than double; also recorded: Numerous, densely stained neurons; also recorded: Numerous immunopositive neurons; also recorded: numerous, densely labeled cells | number of AT8 immunopositive profiles (tangle-like structures [2]; apoE-knockout slices): 193.8±15 | AT8-immunoreactive tangle-like structures (tangle-like structures [2]; wild-type mouse slices): occasionally found; also recorded: far fewer AT8-ir structures | number of AT8 immunopositive profiles (tangle-like structures [2]; wild-type slices): 112.6±13 | increase in cathepsin D heavy chain (~38 kDa) (cathepsin D [3]; apoE-knockout mouse slices, relative to control values): 84±26% and 84+26% | increase in cathepsin D single chain (~50 kDa) (cathepsin D [3]; [5]): 150±29% and 150+29% | increase in cathepsin D heavy chain (~38 kDa) (cathepsin D [3]; [6]): 3.0±5.7% and 3.0+5.7% | increase in cathepsin D single chain form (~50 kDa) (cathepsin D [3]; [6]): 42±22% and 42+22% | number of basophilic granules (lysosomes) (basophilic granules): increase in the number of basophilic granules | 29 kDa tau fragment (tau 29) (tau protein): production of a 29-kDa tau fragment; also recorded: delayed appearance of a 29 kDa fragment | high molecular weight isoforms of tau protein (tau protein): degradation of high molecular weight isoforms of tau protein | native tau proteins (tau-1 blot) (tau): decreases in the native tau proteins; also recorded: induced a truncation of native tau proteins | tau fragments (tau-1 blot) (tau): increases in fragments at apparent molecular weights of 40, 33, and 29 kDa; also recorded: generation of tau fragments | induction of AT8-immunoreactive tangle-like structures (tangle-like structures [4]): only a small number; also recorded: moderately increased; also recorded: induced numerous tangles | activated MAPK (ERK1/2) (MAPK (ERK1/2)): activated; also recorded: activation
